This experiment relates to soybean. In words: Test C pre-/postemergence herbicide test. In kind it is in vivo, Glycine max. The text has this:
Seeds of plant species selected from bermudagrass (Cynodon dactylon (L.) Pers.), Surinam grass (Urochloa decumbens (Staph) R. D. Webster, previously named Brachiaria decumbens Stapf), cocklebur (Xanthium strumarium L.), corn (Zea mays L.), large crabgrass (Digitaria sanguinalis (L.) Scop.), woolly cupgrass (Eriochloa villosa (Thunb.) Kunth), giant foxtail (Setaria faberi Herrm.), goosegrass (Eleusine indica (L.) Gaertn.), johnsongrass (Sorghum halepense (L.) Pers.), kochia (Kochia scoparia (L.) Schrad.), lambsquarters (Chenopodium album L.), morningglory (Ipomoea coccinea L.), eastern black nightshade (Solanum ptycanthum Dunal), yellow nutsedge (Cyperus esculentus L.), pigweed (Amaranthus retroflexus L.), common ragweed (Ambrosia elatior L.), soybean (Glycine max (L.) Merr.), common (oilseed) sunflower (Helianthus annuus L.) and velvetleaf (Abutilon theophrasti Medik.) were planted and treated preemergence with test chemicals formulated in a non-phytotoxic solvent mixture which included a surfactant.
At the same time, plants selected from these crop and weed species and also winter barley (Hordeum vulgare L.), blackgrass (Alopecurus myosuroides Huds.), canarygrass (Phalaris minor Retz.), chickweed (Stellaria media (L.) Vill.), downy bromegrass (Bromus tectorum L.), green foxtail (Setaria viridis (L.) Beauv.), Italian ryegrass (Lolium multiflorum Lam.), wheat (Triticum aestivum L.), wild oat (Avenafatua L.) and windgrass (Apera spica-venti (L.) Beauv.) were treated with postemergence applications of some of the test chemicals formulated in the same manner. Plants ranged in height from 2 to 18 cm (1- to 4-leaf stage) for postemergence treatments. Plant species in the flooded paddy test consisted of rice (Oryza sativa), smallflower umbrella sedge (Cyperus difformis L.), ducksalad (Heteranthera limosa (Sw.) Willd.) and barnyardgrass (Echinochloa crus-galli (L.) Beauv.) grown to the 2-leaf stage for testing. Treated plants and controls were maintained in a greenhouse for 12 to 14 days, after which time all species were compared to controls and visually evaluated. Plant response ratings, summarized in Table C, are based on a scale of 0 to 100 where 0 is no effect and 100 is complete control. A dash (-) response means no test result.

[1] abbreviates: 125 g ai/ha, scale 0 (no effect) to 100 (complete control), visual, 12 to 14 days, preemergence.
Where [2] appears, read: 250 g ai/ha, scale 0 to 100 (0 no effect, 100 complete control), visual, 12 to 14 days, preemergence.
Where [3] appears, read: Postemergence, 250 g ai/ha, scale 0 to 100, 0 no effect, 100 complete control.
[4] abbreviates: postemergence, 62 g ai/ha, scale 0 to 100.
The mark [5] stands for this setting: Preemergence, 500 g ai/ha, scale 0 to 100, 0 no effect, 100 complete control.
Setting [6] is: Postemergence, 500 g ai/ha, scale 0 to 100.
The mark [7] stands for this setting: postemergence, 125 g ai/ha, scale 0 to 100.
[8] abbreviates: 62 g ai/ha, preemergence, scale 0 to 100.
Setting [9] is: 250 g ai/ha, scale 0-100, preemergence.
Setting [10] is: 500 g ai/ha, scale 0 to 100 (0 no effect, 100 complete control), visual, 12 to 14 days, preemergence.
[11] abbreviates: Glycine max, post-emergence, Postemergence, 250 g ai/ha, scale 0 to 100, 0 no effect, 100 complete control, read-out: Plant response rating, Soybean.
The mark [12] stands for this setting: Glycine max, post-emergence, postemergence, 125 g ai/ha, scale 0 to 100, read-out: Plant response rating, Soybean.
Where [13] appears, read: Glycine max, post-emergence, postemergence, 62 g ai/ha, scale 0 to 100, read-out: Plant response rating, Soybean.

Data on 22 compounds can be found in patent US20060069132A1, “Azolecarboxamide herbicides” (priority 2004, published 2006).

Molecules are shown by their SMILES. Where two headings read alike, the source gives them in different places.

Turning to `CCn1nc(C(C)(C)C)cc1C(=O)Nc1cccc(C(=O)NC2CC2)c1` [Compound 44], the “Plant response rating (0 = no effect, 100 = complete control), Soybean” value (62 g ai/ha, preemergence) is 0. Moreover, the “Plant response rating, Soybean” value is, setting by setting: under setting [1], 10; under setting [2], 10; under setting [3], 100; under setting [4], 100.

Regarding `C=CCn1nc(C(C)(C)C)cc1C(=O)Nc1cccc(C(=O)NCC)c1` [Compound 56], for the setting “62 g ai/ha, preemergence”, the “Plant response rating (0 = no effect, 100 = complete control), Soybean” value worked out at 0. Further, the “Plant response rating, Soybean” value is 0 under setting [1] and 10 under setting [2]. Besides, under setting [5], the “Soybean plant response rating” value is reported as 15.

Consider `C=Cn1nc(C(C)(C)C)cc1C(=O)Nc1cccc(C(=O)N(CC)CC)c1` [Compound 34], for which the “Plant response rating (0 = no effect, 100 = complete control), Soybean” value (62 g ai/ha, preemergence) stood at 0. The “Plant response rating, Soybean” value came out at 0 under setting [2], 80 under setting [3], 80 under setting [7] and 70 under setting [4]. For the same compound, the “Soybean plant response rating” value worked out at 80 under setting [6] and 0 under setting [5].

On to `CCN1N=C(C(C)(C)C)CC1C(=O)Nc1cc(C(=O)N2CC=CC2)ccc1F` (racemic) [Compound 310], for which the “Plant response rating, Soybean” value was 0 under setting [8] and 30 under setting [9].

On to `CCN(CC)C(=O)c1cccc(NC(=O)c2sc(C(C)(C)C)nc2C)c1` [Compound 199], for which the “Plant response rating, Soybean” value is, setting by setting: under setting [8], 0; under setting [1], 0; under setting [9], 5. Further, the “Soybean plant response rating” value under setting [5] was determined as 30.

Consider `CCn1nc(C(C)(C)C)cc1C(=O)Nc1cc(C(=O)N(C)OC)ccc1F` [Compound 244], for which the “Plant response rating, Soybean” value is, setting by setting: under setting [8], 0; under setting [9], 10; under setting [10], 15.

For `CCNC(=O)c1cccc(NC(=O)c2cc(C(C)(C)C)nn2CC(F)(F)F)c1` [Compound 31], the “Plant response rating (0 = no effect, 100 = complete control), Soybean” value (62 g ai/ha, preemergence) is 0. In addition, the “Plant response rating, Soybean” value reads like this: under setting [2], 10; under setting [3], 70; under setting [7], 50; under setting [4], 30. The “Soybean plant response rating” value reads like this: under setting [6], 80; under setting [5], 20.

In the case of `C=CCNC(=O)c1cccc(NC(=O)c2nn(C(C)C)nc2CC)c1` [Compound 382], the “Plant response rating, Soybean” value reads like this: under setting [8], 100; under setting [9], 100; under setting [10], 100. In addition, the “Plant response rating (0 = no effect, 100 = complete control), Soybean” value (125 g ai/ha, preemergence) is 100.

Take `C=CCNC(=O)c1cccc(NC(=O)c2cc(C(C)(C)C)nn2C)n1` [Compound 318]: the “Plant response rating, Soybean” value reads like this: under setting [8], 0; under setting [9], 10; under setting [10], 40; under setting [3], 80; under setting [7], 70; under setting [4], 65. For the same compound, under setting [6], the “Soybean plant response rating” value was 90.

For `CCc1nc(C(C)(C)C)sc1C(=O)Nc1cccc(C(=O)NCC2CC2)c1` [Compound 212], the “Plant response rating, Soybean” value under setting [8] amounted to 0; the “Plant response rating, Soybean” value under setting [1] came to 0; the “Plant response rating, Soybean” value under setting [9] came to 0; the “Plant response rating, Soybean” value under setting [10] is 60; the “Plant response rating, Soybean” value under setting [3] is 70; the “Plant response rating, Soybean” value under setting [7] came out at 60. Under setting [4], the “Plant response rating, Soybean” value turned out to be 50. Besides, the “Soybean plant response rating” value under setting [6] worked out at 85.

Turning to `CCOC(=O)c1cc(NC(=O)c2cc(C(C)(C)C)nn2CC)ccc1OCC` [Compound 95], the “Plant response rating, Soybean” value (31 g ai/ha, preemergence, scale 0 to 100) is 0 and the “Plant response rating, Soybean” value under setting [1] came to 0. For the same compound, the “Plant response rating (0 = no effect, 100 = complete control), Soybean” value (62 g ai/ha, preemergence) turned out to be 0.

Consider `CCNC(=S)c1cccc(NC(=O)c2nn(C(C)(C)C)nc2C)c1` [Compound 420], for which the “Plant response rating, Soybean” value under setting [8] is 0 and the “Plant response rating, Soybean” value under setting [10] was found to be 85. Also, the “Plant response rating (0 = no effect, 100 = complete control), Soybean” value (125 g ai/ha, preemergence) worked out at 10.

Take `CCNC(=O)c1ccc(F)c(NC(=O)C2CC(C(C)(C)C)=NN2CC)c1` (racemic) [Compound 269]: the “Plant response rating, Soybean” value under setting [8] is 0; the “Plant response rating, Soybean” value under setting [9] came to 50; the “Plant response rating, Soybean” value under setting [10] worked out at 60.

As for `CCNC(=O)c1cccc(NC(=O)c2nn(C(C)(C)C)cc2Br)c1` [Compound 221, 4-bromo-1-(1,1-dimethylethyl)-N-[3-[(ethylamino)carbonyl]phenyl]-1H-pyrazole-3-carboxamide], the plant injury at 62 g/ha (Glycine max, pre-emergence, 62 g ai/ha, preemergence, scale 0 to 100, read-out: Plant response rating, Soybean) came out at 0%. Moreover, the plant injury at 250 g/ha (Glycine max, pre-emergence, 250 g ai/ha, scale 0-100, read-out: Plant response rating, Soybean) stood at 0%. Further, the plant injury at 500 g/ha (Glycine max, pre-emergence, 500 g ai/ha, scale 0 to 100 (0 no effect, 100 complete control), visual, 12 to 14 days, read-out: Plant response rating, Soybean) amounted to 20%.

With `CCOC(=O)c1cccc(NC(=O)c2cc(C(C)(C)C)nn2CC)c1` [Compound 80, ethyl 3-[[[3-(1,1-dimethylethyl)-1-ethyl-1H-pyrazol-5-yl]carbonyl]-amino]benzoate], the “Plant response rating (0 = no effect, 100 = complete control), Soybean” value (62 g ai/ha, preemergence) amounted to 0. Besides, under setting [11], the plant injury at 250 g/ha came out at 100%. Besides, the plant injury at 125 g/ha is, setting by setting: under setting [12], 90%; (Glycine max, pre-emergence, 125 g ai/ha, scale 0 (no effect) to 100 (complete control), visual, 12 to 14 days, read-out: Plant response rating, Soybean) 0%. Also, the plant injury at 62 g/ha under setting [13] worked out at 90%. Also, the plant injury at 31 g/ha (Glycine max, pre-emergence, 31 g ai/ha, preemergence, scale 0 to 100, read-out: Plant response rating, Soybean) turned out to be 0%.

As for `CCn1nc(C(C)(C)C)cc1C(=O)Nc1cccc(C(=O)NCC(C)C)c1` [Compound 61], the “Plant response rating (0 = no effect, 100 = complete control), Soybean” value (62 g ai/ha, preemergence) was 0. The “Plant response rating, Soybean” value is reported as 0 under setting [1] and 0 under setting [2]. Further, under setting [5], the “Soybean plant response rating” value was determined as 10.

Consider `CCc1nn(C(C)C)nc1C(=O)Nc1cccc(C(=S)N(C)C)c1` [Compound 409], for which the “Plant response rating, Soybean” value came to 0 under setting [8] and 100 under setting [10]. Where the note is “125 g ai/ha, preemergence”, the “Plant response rating (0 = no effect, 100 = complete control), Soybean” value amounted to 80.

As to `CCN1CCc2c(NC(=O)c3cc(C(C)(C)C)nn3CC)cccc2C1=O` [Compound 63], under “62 g ai/ha, preemergence”, the “Plant response rating (0 = no effect, 100 = complete control), Soybean” value was 0. Besides, the “Plant response rating, Soybean” value is, setting by setting: under setting [1], 0; under setting [2], 10. In addition, the “Soybean plant response rating” value under setting [5] is 70.

For `CCn1nc(C(C)(C)C)cc1C(=O)Nc1cccc(C(=O)OCCF)c1` [Compound 82, 2-fluoroethyl 3-[[[3-(1,1-dimethylethyl)-1-ethyl-1H-pyrazol-5-yl]-carbonyl]amino]benzoate], the plant injury at 250 g/ha under setting [11] came out at 40%. The plant injury at 125 g/ha under setting [12] was determined as 30%. Besides, under setting [13], the plant injury at 62 g/ha was 20%. Also, the “Soybean plant response rating” value under setting [6] worked out at 40.

`CCN(CC)C(=O)c1cccc(NC(=O)c2cc(C(C)(C)C)nn2C)n1` [Compound 314]: the “Plant response rating, Soybean” value by setting is: under setting [8], 0; under setting [9], 40; under setting [10], 40.

As for `C#CCNC(=O)c1cccc(NC(=O)c2cc(C(C)(C)C)nn2CC)n1` [Compound 147], under “62 g ai/ha, preemergence”, the “Plant response rating (0 = no effect, 100 = complete control), Soybean” value came out at 0. For the same compound, the “Plant response rating, Soybean” value is 0 under setting [1], 40 under setting [3], 35 under setting [7] and 10 under setting [4]. The “Soybean plant response rating” value is, setting by setting: under setting [6], 70; under setting [5], 5.

For the compound `CCc1nc(C(C)(C)C)sc1C(=O)Nc1cccc(C(=O)N(CC)CC)c1` [Compound 205], the “Plant response rating, Soybean” value by setting is: under setting [1], 20; under setting [9], 20. Moreover, the “Soybean plant response rating” value under setting [5] turned out to be 60.
